Where a chain is given by its changes, count along the chain named. Peptide text beside a SMILES is read from it. * marks the point of attachment. Bz = O=C(c1ccccc1)*
Columns and labels:
Sth1BD A1329C = molecular target: T1, Sth1BD A1329C (Saccharomyces cerevisiae, UniProt P32597, A1329C); experiment: ITC binding of H3K14bz peptide to Sth1BD A1329C mutant
T1 construct: Sth1BD (residues 1248-1359); 6*His-Sumo (N, cleaved yes); made in house; host or cells: Escherichia coli Rosetta
T1 sequence (P32597 1248-1359 A1329C): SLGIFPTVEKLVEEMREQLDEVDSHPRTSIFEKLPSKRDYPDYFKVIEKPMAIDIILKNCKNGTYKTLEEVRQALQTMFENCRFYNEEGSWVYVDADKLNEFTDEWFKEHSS
Description: (§1) ITC titrations were performed using a MicroCal ITC200 system (GE Healthcare, USA) at 20 °C. For ITC measurement, peptides and proteins were dialyzed into the same buffer (25 mM Tris-HCl, pH 8.0, 150 mM NaCl). […] For reader-related ITC experiments, peptides at 2.0 mM in the syringe were titrated into Taf14YEATS/Sas5YEATS/Sth1BD at 0.1–0.2 mM in the sample cell. Each titration consisted of 20 successive injections. The titration curves were processed using the Origin 7.0 software program (OriginLab) according to the one-binding-site fitting model. Each titration was repeated twice, and one representative plot was shown in the paper. The dissociation constants (Kd), enthalpy changes (ΔH), and fitting errors were derived from one representative ITC plot.

Sth1BD = molecular target: T2, Sth1BD (Saccharomyces cerevisiae, UniProt P32597); experiment: ITC binding of H3 peptides to Sth1 bromodomain
T2 construct: Sth1BD (residues 1248-1359); 6*His-Sumo (N, cleaved yes); made in house; host or cells: Escherichia coli Rosetta
T2 sequence (P32597 1248-1359): T1 sequence (P32597 1248-1359 A1329C) with C82A
Description: as §1

Sas5YEATS = molecular target: T3, Sas5YEATS (Saccharomyces cerevisiae, UniProt Q99314); experiment: ITC binding of H3 peptides to Sas5YEATS
T3 construct: 6*His-Sumo (N, cleaved yes); made in house; host or cells: Escherichia coli Rosetta
T3 sequence (Q99314 2-139): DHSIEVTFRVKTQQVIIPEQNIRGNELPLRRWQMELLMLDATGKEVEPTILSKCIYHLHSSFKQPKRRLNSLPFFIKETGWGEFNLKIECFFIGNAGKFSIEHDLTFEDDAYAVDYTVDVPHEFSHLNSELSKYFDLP

Gcn5-Ada2 = experiment: DTNB acylation activity assay of Gcn5-Ada2; type: biochemical, Saccharomyces cerevisiae; conditions: 250 μM H3 1-18 peptide, pH 7.8, 30 °C
Description: Kinetic measurements comparing rates of acetylation and benzoylation were performed using the 5,5′-dithiobis-(2-bitrobenzoic acid) (DTNB, D218200-1G, Sigma) assay. Reactions contained 2 μM Gcn5-Ada2, 250 μM H3 peptide amino acids 1-18 ([…]), 100 mM HEPES pH7.8, 50 mM NaCl and 500 μM acetyl-CoA or benzoyl-CoA. Each reaction was incubated for 5 min at 30 °C before adding acyl-CoA to start the reaction. The reaction was quenched at the indicated time points by adding two volumes of freshly prepared quenching buffer (3.2 M guanidine-HCl, 100 mM sodium phosphate pH 6.8). The samples were added to one volume of 4 mM DTNB dissolved in 100 mM sodium phosphate (pH 6.8) and transferred to a 384-well polystyrene clear-bottom plate (CORNING, 3680), and the absorbance at 412 nm was measured in a Bio-TEK plate reader. Absorbances were converted to concentrations using a standard curve generated by HSCOA standards. The acetylation reaction was quenched after 0.5, 1.0, 1.5, 2.0, and 2.5 min, and the benzoylation reaction was quenched after 1, 2, 3, and 4 h. All acylation rates were corrected by subtracting the rate of acyl-CoA consumption by Gcn5-Ada2 in the absence of peptide. The acetylation assays were performed in triplicate, but the benzoylation assay was not repeated due to the limitation of materials.

BY4742 cells = experiment: Western blot of histone Kbz and Kac levels in yeast treated with sodium benzoate; type: cell-based, Saccharomyces cerevisiae; conditions: BY4742 cells in YPD at log phase, sodium benzoate added for 6 h, histones extracted; pan anti-Kbz and anti-Kac
Excerpt: Anti-Kbz (PTM Biolabs Inc., PTM-762, 1:1000, Lot^# 1314381619I926), anti-Kac (Cell signal, 9441 S, 1:1000, Lot^# 14), anti-H3N (Active motif, 39763, 1:700, Lot^# 20418023), anti-H4 (Active motif, 61521, 1:3000, Lot^# 31416005), and anti-tubulin (Sigma, T6199, 1:3000, Lot^# 048M4751V) antibodies were used in this study. The HRP secondary antibody and the fluorescent secondary antibodies were used: Peroxidase AffiniPure Goat Anti-Mouse IgG (Jackson ImmunoResearch, 1:5000, 115-035-003), Peroxidase AffiniPure Goat Anti-Rabbit IgG (Jackson ImmunoResearch, 1:5000, 111-035-003), IRDye 800CW goat anti-rabbit IgG (LI-COR P/N 923-32211, 1:5000, Lot^# D00304-15) and IRDye 680RD goat anti-Mouse IgG (LI-COR P/N 926-68070, 1:10000, Lot^# D01014-04). The fluorescent western blots were detected on Odyssey CLx (LI-COR) and quantified by Image Studio (ver. 5.2.5).
Typically, 100 mg yeast cell pellets were harvested and suspended in 1 ml buffer A (1 M sorbitol, 50 mM Tris-HCl, pH 7.5, 5 mM MgCl2, 5 mM 2-mercaptoethanol) and centrifuged for 5 min at 900 g. Then, the pellet was resuspended in 1 ml buffer A with 60 μl zymolyase. […] The concentration of histones was measured by a BCA Protein Assay Kit (TIANGEN, PA115-01, China). The samples were analyzed by western blot or by mass spectrometry.

CC(C)C[C@H](NC(=O)[C@H](CCC(N)=O)NC(=O)[C@H](CCCCN)NC(=O)[C@H](CCCNC(=N)N)NC(=O)[C@@H]1CCCN1C(=O)[C@H](C)NC(=O)[C@H](CCCCNC(=O)c1ccccc1)NC(=O)CNC(=O)CNC(=O)[C@@H](NC(=O)[C@H](CO)NC(=O)[C@H](CCCCN)NC(=O)[C@H](CCCNC(=N)N)NC(=O)[C@H](C)NC(=O)[C@@H](N)[C@@H](C)O)[C@@H](C)O)C(=O)N[C@@H](C)C(=O)N[C@@H](CO)C(=O)N[C@@H](Cc1ccc(O)cc1)C(=O)O [H3K14bz] (H-TARKSTGGK(Bz)APRKQLASY-OH) gave a Kd (Sth1BD A1329C) of 187 ± 29.8 µM and a Kd (Sth1BD) of 88.5 ± 12.4 µM.

CC(C)C[C@H](NC(=O)[C@H](CCC(N)=O)NC(=O)[C@@H](N)CCCCN)C(=O)N[C@@H](C)C(=O)N[C@@H](CO)C(=O)N[C@@H](CCCCN)C(=O)N[C@@H](C)C(=O)N[C@@H](C)C(=O)N[C@@H](CCCNC(=N)N)C(=O)N[C@@H](CCCCNC(=O)c1ccccc1)C(=O)N[C@@H](CO)C(=O)N[C@@H](C)C(=O)N1CCC[C@H]1C(=O)N[C@@H](CO)C(=O)N[C@H](C(=O)NCC(=O)NCC(=O)N[C@H](C(=O)N[C@@H](CCCCN)C(=O)N[C@@H](Cc1ccc(O)cc1)C(=O)O)C(C)C)[C@@H](C)O [H3K27bz] (H-KQLASKAARK(Bz)SAPSTGGVKY-OH) showed a Kd (Sas5YEATS) of 92.6 ± 5.63 µM and a Kd (Sth1BD) of 386 µM.

CC(=O)SCCNC(=O)CCNC(=O)[C@H](O)C(C)(C)COP(=O)(O)OP(=O)(O)OC[C@H]1O[C@@H](n2cnc3c(N)ncnc32)[C@H](O)[C@@H]1OP(=O)(O)O [acetyl-CoA] was tested, and the acetylation rate (Gcn5-Ada2; 2 μM Gcn5-Ada2, 500 μM acetyl-CoA, n = 3) was 10.35 µM/min.

CC(C)(COP(=O)(O)OP(=O)(O)OC[C@H]1O[C@@H](n2cnc3c(N)ncnc32)[C@H](O)[C@@H]1OP(=O)(O)O)[C@@H](O)C(=O)NCCC(=O)NCCSC(=O)c1ccccc1 [benzoyl-CoA] was tested, and the benzoylation rate (Gcn5-Ada2; 2 μM Gcn5-Ada2, 500 μM benzoyl-CoA, single experiment) was 1.19 µM/h.

In the case of O=C([O-])c1ccccc1.[Na+] [sodium benzoate], the “effect on histone Kbz and Kac signals (western blot)” value (BY4742 cells) is reported as “significantly enhanced the Kbz and Kac signals on yeast histones in a dose-dependent manner”.

— publication PMC8927147, “Global profiling of regulatory elements in the histone benzoylation pathway” (Nature Communications, 2022)
